Assay results taken from PubChem BioAssay AID1963966 (Molecular Pharmacology Branch, DTP, NCI, 2024).

Tested on: 935938-334-R-J1-PDC spheroids with HUVEC/MSC, viability
Assay: Anticancer human tumor 935938-334-R-J1-PDC patient-derived small intestine adenocarcinoma cell line growth inhibition [PI3K]
Conditions: for IC50: curve of first compound; for viability, T/C: stronger effect = lower value
Procedure, shortened: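 Combination activity was assessed by viability in multicellular tumor spheroids carrying HUVEC and MSC components. Agents were tested with PI3K inhibitors from a Cmax-based top dose (or 10 microM) downward in half-log increments.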

[1] = second compound 0.0316 µM, first compound 0.0316 µM
[2] = second compound 0.0316 µM, first compound 0.1 µM
[3] = second compound 0.0316 µM, first compound 0.316 µM
[4] = second compound 0.0316 µM, first compound 1 µM
[5] = second compound 0.0316 µM, first compound 3.16 µM
[6] = second compound 0.0316 µM, first compound 10 µM
[7] = second compound 0.1 µM, first compound 0.0316 µM
[8] = second compound 0.1 µM, first compound 0.1 µM
[9] = second compound 0.1 µM, first compound 0.316 µM
[10] = second compound 0.1 µM, first compound 1 µM
[11] = second compound 0.1 µM, first compound 3.16 µM
[12] = second compound 0.1 µM, first compound 10 µM
[13] = second compound 0.316 µM, first compound 0.0316 µM
[14] = second compound 0.316 µM, first compound 0.1 µM
[15] = second compound 0.316 µM, first compound 0.316 µM
[16] = second compound 0.316 µM, first compound 1 µM
[17] = second compound 0.316 µM, first compound 3.16 µM
[18] = second compound 0.316 µM, first compound 10 µM
[19] = second compound 1 µM, first compound 0.0316 µM
[20] = second compound 1 µM, first compound 0.1 µM
[21] = second compound 1 µM, first compound 0.316 µM
[22] = second compound 1 µM, first compound 1 µM
[23] = second compound 1 µM, first compound 3.16 µM
[24] = second compound 1 µM, first compound 10 µM
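Note: compound exposure lasted seven days before viability was read.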
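Throughout, for viability, T/C: percent of vehicle DMSO treated spheroid viability so 100% = untreated.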

Cn1ncc(Cl)c1-c1cc(C(=O)NC(CN)Cc2cccc(F)c2)sc1Cl (centres undefined) + CC(Nc1ncnc2nc[nH]c12)c1cc2cccc(Cl)c2c(=O)n1-c1ccccc1
IC50 (second compound 0.0316 µM): > 10000 nM
IC50 (second compound 0.1 µM): > 10000 nM
IC50 (second compound 0.316 µM): 3110 nM
IC50 (second compound 1 µM): 2710 nM
IC50 (second compound 3.16 µM): 1760 nM
IC50 (second compound 10 µM): 271 nM
viability, T/C [1]: 73%
viability, T/C [2]: 91.4%
viability, T/C [3]: 65.3%
viability, T/C [4]: 65.4%
viability, T/C [5]: 54.6%
viability, T/C [6]: 51.3%
viability, T/C [7]: 92.6%
viability, T/C [8]: 88.9%
viability, T/C [9]: 88.1%
viability, T/C [10]: 63.2%
viability, T/C [11]: 56.8%
viability, T/C [12]: 58.1%
viability, T/C [13]: 104%
viability, T/C [14]: 128%
viability, T/C [15]: 75%
viability, T/C [16]: 78.4%
viability, T/C [17]: 49.3%
viability, T/C [18]: 34%
viability, T/C [19]: 73.5%
viability, T/C [20]: 97.8%
viability, T/C [21]: 73.1%
viability, T/C [22]: 61.6%
viability, T/C [23]: 51.3%
viability, T/C [24]: 36.3%
viability, T/C (second compound 3.16 µM, first compound 0.0316 µM): 72.2%
viability, T/C (second compound 3.16 µM, first compound 0.1 µM): 74.1%
viability, T/C (second compound 3.16 µM, first compound 0.316 µM): 61.5%
viability, T/C (second compound 3.16 µM, first compound 1 µM): 47.9%
viability, T/C (second compound 3.16 µM, first compound 3.16 µM): 52.5%
viability, T/C (second compound 3.16 µM, first compound 10 µM): 33.2%
viability, T/C (second compound 10 µM, first compound 0.0316 µM): 73.2%
viability, T/C (second compound 10 µM, first compound 0.1 µM): 83.9%
viability, T/C (second compound 10 µM, first compound 0.316 µM): 45.5%
viability, T/C (second compound 10 µM, first compound 1 µM): 52.7%
viability, T/C (second compound 10 µM, first compound 3.16 µM): 39.4%
viability, T/C (second compound 10 µM, first compound 10 µM): 34.5%

Cn1nccc1Nc1nccc(-c2ccn(C(CO)c3ccc(Cl)c(F)c3)c(=O)c2)n1 (centres undefined) + CC(Nc1ccc2c(c1)OCCn1cc(N3C(=O)OCC3C(F)F)nc1-2)C(N)=O
IC50 (second compound 0.00316 µM): 1400 nM
IC50 (second compound 0.01 µM): 835 nM
IC50 (second compound 0.0316 µM): 1430 nM
IC50 (second compound 0.1 µM): 777 nM
IC50 (second compound 0.316 µM): 505 nM
IC50 (second compound 1 µM): 147 nM
viability, T/C (second compound 0.00316 µM, first compound 0.0316 µM): 101%
viability, T/C (second compound 0.00316 µM, first compound 0.1 µM): 92.6%
viability, T/C (second compound 0.00316 µM, first compound 0.316 µM): 70.6%
viability, T/C (second compound 0.00316 µM, first compound 1 µM): 57.2%
viability, T/C (second compound 0.00316 µM, first compound 3.16 µM): 37.5%
viability, T/C (second compound 0.00316 µM, first compound 10 µM): 37%
viability, T/C (second compound 0.01 µM, first compound 0.0316 µM): 99.9%
viability, T/C (second compound 0.01 µM, first compound 0.1 µM): 82.1%
viability, T/C (second compound 0.01 µM, first compound 0.316 µM): 73.8%
viability, T/C (second compound 0.01 µM, first compound 1 µM): 41.4%
viability, T/C (second compound 0.01 µM, first compound 3.16 µM): 38.9%
viability, T/C (second compound 0.01 µM, first compound 10 µM): 33.7%
viability, T/C [1]: 108%
viability, T/C [2]: 81.9%
viability, T/C [3]: 66%
viability, T/C [4]: 59.5%
viability, T/C [5]: 38.8%
viability, T/C [6]: 31.4%
viability, T/C [7]: 87.6%
viability, T/C [8]: 71.7%
viability, T/C [9]: 63.8%
viability, T/C [10]: 48.6%
viability, T/C [11]: 30.3%
viability, T/C [12]: 25.8%
viability, T/C [13]: 86.5%
viability, T/C [14]: 71.2%
viability, T/C [15]: 53%
viability, T/C [16]: 44.7%
viability, T/C [17]: 29.7%
viability, T/C [18]: 21.6%
viability, T/C [19]: 70.3%
viability, T/C [20]: 55.1%
viability, T/C [21]: 39.5%
viability, T/C [22]: 30.1%
viability, T/C [23]: 23.2%
viability, T/C [24]: 23.4%
